# Measurements as given in PubChem BioAssay AID1996.
# Conditions: buffer; pH 7.4; 200.0 µM
row,SMILES,solubility kinetic
1,C=CCN(c1ccccc1)S(=O)(=O)c1cccc(C(=O)NCc2ccco2)c1,23.9 µg/mL
2,COc1ccccc1NC(=S)NC1CC2CCC1C2 (centres undefined),> 41.5 µg/mL
3,CC(C)NCC(O)c1ccc(NS(C)(=O)=O)cc1.Cl (centres undefined),> 46.3 µg/mL
4,CSc1nc([O-])cc(=O)n1-c1ccc(F)cc1.[K+],> 43.6 µg/mL
5,CSCC[C@H](NC(=O)c1cccc(S(=O)(=O)N2CCCCCC2)c1)c1nc2ccccc2[nH]1,2.5 µg/mL
6,C/C(CC(=O)Nc1ccccn1)=N\NC(=O)c1cccc(C)c1,> 46.6 µg/mL
7,CCc1ccc(NC(=O)NCCCN2CCCC2=O)cc1,> 43.4 µg/mL
8,Cc1ccc(NC(=O)OCCNC(=O)OC(C)C)cc1,33.1 µg/mL
9,COc1ccc(C(=O)N=c2sc3ccccc3n2C)cc1OC,< 0.4 µg/mL
10,NS(=O)(=O)c1ccc(NC(=O)CN2CCCc3ccccc32)cc1,19.1 µg/mL
11,Cc1cc(O)cc(=O)n1Cc1ccccc1,> 32.3 µg/mL
12,Cc1sc2nc(SCCO)n(-c3ccccc3)c(=O)c2c1C,1.4 µg/mL
13,COc1ccc(/C=C/C(=O)Nc2ccccc2F)cc1S(=O)(=O)N1CCOCC1,37.5 µg/mL
14,COc1ccccc1Cn1c(CO)nc2ccccc21,37.4 µg/mL
15,O=C(CCCOc1ccc(Cl)cc1Cl)Nc1ccccc1C(=O)O,> 55.2 µg/mL
16,Cl.O=C(COc1ccc(Br)cc1)NCCN1CCCC1,51.8 µg/mL
17,C=CCOc1ccc(/C=C2/C(=O)ON=C2C)cc1OCC,28.3 µg/mL
18,Cc1cc(C)c(C)c(S(=O)(=O)N2CCN(C(=O)c3cc(S(=O)(=O)N4CCOCC4)ccc3F)CC2)c1C,12.7 µg/mL
19,COc1ccc(C(C)NC(=O)Cc2cccs2)cc1OC (centres undefined),> 45.8 µg/mL
20,CCc1ncc(C)nc1CC,6.7 µg/mL
21,Cc1ccc([N+](=O)[O-])cc1NC(=O)CNC1CCCCC1,39 µg/mL
22,Cn1c(SCC(=O)NC2CCCC2)nc2c(c1=O)SCC2,> 48.8 µg/mL
23,Cc1ccsc1C1C(C#N)=C(N)OC2=C1C(=O)CC(C)(C)C2 (centres undefined),> 47.2 µg/mL
24,CCOc1ccc2nc(NCCNC(=O)C(C)(C)C)c(C)cc2c1,47.1 µg/mL

row,SMILES,solubility kinetic
1,CC(=O)c1ccc(Nc2nc(-c3cccnc3)cs2)cc1,0.9 µg/mL
2,O=C1CNC(=O)N1,> 15 µg/mL
3,O=[N+]([O-])c1cc(Cl)ccc1NCCc1ccccn1,28.7 µg/mL
4,COc1ccc(Br)cc1S(=O)(=O)NCCc1cccs1,34.4 µg/mL
5,Cc1nc(/C(N)=N/OC(=O)c2cccc(Cl)c2)c(C(F)(F)F)o1,> 52.2 µg/mL
6,CCC(C)C(Nc1ncnc2scc(-c3ccccc3)c12)C(=O)O (centres undefined),> 51.2 µg/mL
7,Nc1cc(-c2ccccc2)n2c(n1)nc1ccccc12,5.7 µg/mL
8,Cn1c(=O)n(C)c2cc(NC(=O)COc3ccc(F)cc3F)ccc21,47.2 µg/mL
9,CS(=O)(=O)c1ccccc1C(=O)Nc1ccc2sccc2c1,33.8 µg/mL
10,Cc1cc(C(=O)N2CCCc3ccccc32)ccc1[N+](=O)[O-],34.7 µg/mL
11,O=Nc1ccc(O)c2ncccc12,> 26.1 µg/mL
12,CCOCCn1c2ccccc2c2nc3ccccc3nc21,4.1 µg/mL
13,O=C(Nc1ccc2ncccc2c1)c1cccc(Br)c1,2.5 µg/mL
14,COC(=O)/C(C#N)=C/c1c[nH]c2ccccc12,7.1 µg/mL
15,NS(=O)(=O)c1cccc(NC(=O)CCCC2CCCCC2)c1,8.8 µg/mL
16,O=C1c2cccc3cccc(c23)C(=O)N1c1ccccc1Cl,0.8 µg/mL
17,CSc1c(CC(=O)Nc2ccccc2)n(C)c2ccccc12,0.4 µg/mL
18,Cc1cnc(C(=O)OCC(=O)c2ccc(Cl)cc2)cn1,> 43.6 µg/mL
19,CC1CCCCN1C(=O)COC(=O)c1ccc(N2CCCC2=O)cc1 (centres undefined),> 51.7 µg/mL
20,CC(C)c1onc(C(=O)Nc2cccc(O)c2)c1[N+](=O)[O-],37.4 µg/mL
21,O=C(CCc1nc(-c2ccccc2)no1)Nc1cccnc1,> 44.1 µg/mL
22,O=C(NC1CC1)C1CCN(c2nc3ccccc3s2)CC1,> 45.2 µg/mL
23,CCc1ccccc1NC(=O)C1CC(c2ccc(OC)cc2)=NO1 (centres undefined),45.3 µg/mL
24,O=C(Cn1cc(C(=O)c2ccccc2F)c2ccccc21)NC1CC1,2 µg/mL

row,SMILES,solubility kinetic
1,CC(CN1C(C)CCCC1C)OC(=O)c1ccccc1F.Cl (centres undefined),> 49.5 µg/mL
2,Cc1onc(-c2ccccc2Cl)c1C(O)c1ccc(F)cc1 (centres undefined),46.6 µg/mL
3,COc1ccccc1/C=C/C(=O)OCC(=O)NC1CCS(=O)(=O)C1 (centres undefined),> 53 µg/mL
4,CC(=O)c1ccc(Oc2ncnc(N)c2[N+](=O)[O-])cc1,2.3 µg/mL
5,COc1cccc(OCCNC(=O)c2ccc(C)cc2)c1,41.9 µg/mL
6,Cc1c(C(=O)OCC(=O)N2CCCC2)cccc1[N+](=O)[O-],> 43.8 µg/mL
7,NS(=O)(=O)c1cccc(NC(=O)C2CC(=O)N(Cc3ccco3)C2)c1 (centres undefined),> 54.5 µg/mL
8,Cc1ccc2nc(SCC(=O)Nc3nonc3C)[nH]c2c1,> 45.5 µg/mL
9,CCOc1ccccc1CNC(c1ccccc1)c1ccccc1.Cl,1.4 µg/mL
10,CN1C(C(=O)Nc2ncccn2)=C(O)c2ccccc2S1(=O)=O,> 49.8 µg/mL
11,C=CCOC(=O)C1=C(C)NC(=O)NC1c1ccc(O)cc1 (centres undefined),> 43.2 µg/mL
12,COc1ccc(C(=O)NCC(O)CN2CCOCC2)cc1[N+](=O)[O-] (centres undefined),38.9 µg/mL
13,CC(C)N1CCN(Cc2ccc3nsnc3c2)CC1CCO (centres undefined),> 48.1 µg/mL
14,COC(=O)c1ccc(C(=O)Nc2nc3cc(N)c(C)cc3s2)cc1,< 0.2 µg/mL
15,CN(C)C(CNC(=O)c1ccc(NC(=O)CC#N)cc1)c1ccccc1 (centres undefined),> 52.6 µg/mL
16,CCc1cc2ccccc2nc1Cl,< 0.4 µg/mL
17,Cc1ccccc1-c1nc2cc(Cl)ccc2c(=O)o1,< 0.6 µg/mL
18,CN(C(=O)/C=C/c1cnc2ccccc2c1)C1CCCCC1,> 44.2 µg/mL
19,Cc1cccc(N2CCCn3c2nc2c3c(=O)[nH]c(=O)n2C)c1,> 46.7 µg/mL
20,O=C(COC(=O)c1ccc(Cl)nc1)c1ccc2c(c1)OCCO2,14.7 µg/mL
21,CCOc1ccc(N(C(C)C(=O)N2CCCC2)S(C)(=O)=O)cc1 (centres undefined),> 51.1 µg/mL
22,COc1ccc(OC)c(NC(=O)COC(=O)CC2CCCCC2)c1,19 µg/mL
23,CCCCC(C(=O)O)C(C)CC(=O)Nc1nccs1 (centres undefined),> 42.7 µg/mL
24,O=C(NCC1CCCCC1)c1cc2ccccc2cc1O,9.7 µg/mL

row,SMILES,solubility kinetic
1,O=C(Cn1cccc1C(=O)c1ccccc1)NCc1cccc(Cl)c1,< 0.4 µg/mL
2,O=C1CCC([N+](=O)[O-])C(C2CC=CCC2)N1 (centres undefined),> 33.6 µg/mL
3,CCCn1c(=O)c(C(=O)Nc2ccccc2C)c(O)c2ccccc21,< 0.4 µg/mL
4,C/C(CC1CC(C)(C)OC1=O)=N\NC(N)=S (centres undefined),> 36.5 µg/mL
5,CC(=O)NC(c1ccc2ccccc2c1)c1ccc2cccnc2c1O (centres undefined),1.2 µg/mL
6,Cc1cc(C)c(C(=O)Nc2ccccc2)c(CC(C)(C)C(=O)O)c1,> 48.8 µg/mL
7,O=C1C(Cc2ccc(O)cc2)NC(=S)N1Cc1ccccc1 (centres undefined),> 46.9 µg/mL
8,COc1ccc(-c2csc(N3CCSCC3)n2)cc1,0.3 µg/mL
9,CCOC(=O)C1CCCN(/C=C2\SC(=S)N(CC)C2=O)C1 (centres undefined),39.4 µg/mL
10,CCOC(=O)c1ccccc1NC(=S)N1CCC(C(N)=O)CC1,41.6 µg/mL
11,Cc1ccn2c(NC3CCCC3)c(-c3ccncc3)nc2c1,35.3 µg/mL
12,O=C(CC1SC(N2CCOCC2)=NC1=O)Nc1ccccc1F (centres undefined),> 50.6 µg/mL
13,COc1cc2c(cc1NC(=O)CCC(=O)O)oc1ccccc12,46.7 µg/mL
14,Cc1cccc(CCN=C(N)NS(=O)(=O)c2ccccc2)c1,> 47.6 µg/mL
15,NS(=O)(=O)c1ccc(CNC(=O)CSc2nc3ccc(Cl)cc3[nH]2)cc1,10.3 µg/mL
16,Cc1cccc(C2=N/C(=C\c3cccs3)C(=O)O2)c1,4 µg/mL
17,Cc1ccc(F)cc1NC(=O)CSc1ncccn1,> 41.6 µg/mL
18,CCOC(=O)Cc1csc(NC(=O)COc2ccc(C)cc2)n1,> 50.2 µg/mL
19,O=C(CNC(=O)c1ccco1)Nc1ccc(F)cc1,37 µg/mL
20,CCCCNC(=O)C1CC(=O)N(CCc2ccc(C)cc2)C1 (centres undefined),> 45.4 µg/mL
21,COc1cc(OC)cc(C(=O)Nc2cccc3c2CCCC3)c1,< 0.7 µg/mL
22,Cc1nc2ccccc2c2c1C(=O)N(c1cccc(C(=O)O)c1)C2=O,> 49.8 µg/mL
23,O=C1CC(Nc2cc(=O)[nH]c(=O)[nH]2)C(=O)N1c1ccccc1Cl (centres undefined),39.4 µg/mL
24,COc1ccc(CCN(C)C/C=C/c2ccccc2)cc1OC,30.1 µg/mL

row,SMILES,solubility kinetic
1,Clc1ccc(CNc2cnccn2)cc1Cl,> 38.1 µg/mL
2,CCc1noc(C)c1C(=O)OCC(=O)NCc1ccc(Cl)cc1,8.4 µg/mL
3,O=C1c2ccccc2C(=O)C1c1ccccn1,14.2 µg/mL
4,COc1ccc2oc(-c3ccccc3)c(C(=O)N(C)C)c2c1,> 44.3 µg/mL
5,CC(=O)c1ccc(N2CCN(C(=O)Nc3ccc(Cl)cc3)CC2)cc1,1.3 µg/mL
6,Cc1cc(NC(=O)CSCC(=O)N2CCN(c3ccccc3)CC2)no1,> 56.2 µg/mL
7,Cc1ccc(NC(=O)CN(C)C(=O)Nc2ccc(C)cc2)cc1,4.9 µg/mL
8,COc1cc(C(=O)O)c([N+](=O)[O-])c(OC)c1OC,> 38.6 µg/mL
9,O=C(COC(=O)COc1ccccc1)Nc1ccc2c(c1)OCCO2,15.3 µg/mL
10,CC(=O)N/C(=N/c1nc(C)cc(C)n1)Nc1cc(C)cc(C)c1,3.8 µg/mL
11,O=C(COc1ccccc1)Nc1ccc2oc(=O)ccc2c1,9.8 µg/mL
12,COc1ccc2cc(C(=O)NCCCN3CCCC3=O)[nH]c2c1,> 47.3 µg/mL
13,COc1ncnc2c1oc1nc(C)c3c(c12)CC(C)(C)OC3,4.9 µg/mL
14,O=C1CCCC(=O)C1C1c2ccccc2CCN1C(=O)CCl (centres undefined),> 48 µg/mL
15,COc1ccc(Oc2nc(-c3ccccn3)nc3ccccc23)cc1,17.6 µg/mL
16,CCCCN(C(=O)CSc1nc2ccccc2s1)c1c(N)n(CCCC)c(=O)[nH]c1=O,35.6 µg/mL
17,CC(CCc1ccccc1)NC(=O)Cc1ccc(Br)cc1 (centres undefined),2.5 µg/mL
18,CC(=O)c1cc(C(C)=O)c(C)nc1C,> 28.7 µg/mL
19,CC1CCN(C(=O)COC(=O)c2ccc(Cl)nc2)CC1,> 44.5 µg/mL
20,O=C(C[n+]1ccccn1)c1ccccc1.[Br-],> 41.9 µg/mL
21,CC(=O)c1c(C)oc2ccc(NS(=O)(=O)c3ccccc3)cc12,< 0.7 µg/mL
22,CCCn1c(SCC(=O)Nc2ccc(Cl)cc2F)nc(O)cc1=O,> 55.8 µg/mL
23,CC1(C)C2([N+](=O)[O-])CN3CC1([N+](=O)[O-])CN(C2)C3c1ccc(O)c(O)c1 (centres undefined),3.5 µg/mL
